This is an account of results in US20240033373A1, “TARGETED, INTRACELLULAR DELIVERY OF THERAPEUTIC PEPTIDES USING SUPRAMOLECULAR NANOMATERIALS” (The University of Chicago, priority 2020, published 2024).

Read-outs that look alike come from different tables or passages of the source.

For one data set, the system named is DLBCL cell lines. The data set can be described thus: Cell death assay (CellTiter-Glo 2.0), several lines stated together. Format: cell-based, human. As for the experimental part: Plotted points are means of duplicates+/−S.E.M., normalized to an untreated control that received the same pre-treatment, and fitted using nonlinear regression.
(§1) Cell Death Assays Treatments were prepared in 96-well plates in 50 μL at 2× concentration. Cells were suspended at 0.2 million cells per mL, and 50 μL (10,000 cells) were added to each well and pipette-mixed. The plates were incubated for 24-72 hours, depending on the experiment, then 100 μL of CellTiter-Glo 2.0 (Promega) was added and pipette-mixed, followed by luminescence reading (SpectraMax iD5, Molecular Devices).
On the technique in general: ATP-based viability assays read luminescence as a measure of living cells.

In the next data set the test system is OCI-Ly3. The data set can be described thus: Cell death assay (CellTiter-Glo 2.0). Format: cell-based, human. Conditions: 24 h ATSP-7041 pre-treatment, then BH3 mimetic. As for the experimental part:
as §1
(§2) First, SU-DHL-5 was treated with equivalent doses of SAH-MS1-18 either as a free drug, inside of αCD19- or αOspA-PSOMs, or on the outside of empty αCD19- or αOspA-PSOMs (FIG. 14A). […] Other DLBCL cell lines, including OCILy1, OCI-Ly3, and OCI-Ly8, were treated (FIG. 14B).

The test system of the next data set is SU-DHL-5. The data set can be described thus: Cell death assay (CellTiter-Glo 2.0). Format: cell-based, human. The note with it: 24 h ATSP-7041 pre-treatment, then BH3 mimetic. As to the method:
as §1, §2

The conditions of data set [1]: pipettable melt of PEG-SS—PPS and PEG(500)DME.
The mark [2] stands for this setting: 24 h ATSP-7041 pre-treatment vs vehicle, washed, then BH3 mimetic, WTp53 lines.

As to `Cc1c(-c2ccc(N3CCc4cccc(C(=O)Nc5nc6ccccc6s5)c4C3)nc2C(=O)O)cnn1CC12CC3CC(CC(C3)C1)C2` [A-1331852], the “change in cell death sensitivity after p53-reactivation” value in the data set on DLBCL cell lines (setting [2]) is listed as “no notable change in sensitivity”.
Same read-out and setting: under `CC1(C)CCC(CN2CCN(c3ccc(C(=O)NS(=O)(=O)c4ccc(NCC5CCOCC5)c([N+](=O)[O-])c4)c(Oc4cnc5[nH]ccc5c4)c3)CC2)=C(c2ccc(Cl)cc2)C1` [ABT-199] stands “no notable change in sensitivity”.
As to `Cc1c(-c2c(-c3ccc(F)o3)sc3ncnc(O[C@H](Cc4ccccc4OCc4ccnn4CC(F)(F)F)C(=O)O)c23)ccc(OCCN2CCN(C)CC2)c1Cl` [S63845], the “change in cell death sensitivity after p53-reactivation” value was “made much more sensitive” in the data set on OCI-Ly3, “made much more sensitive” in the data set on SU-DHL-5 and “much more sensitive” in the data set with DLBCL cell lines. The “solubility in polymer melt” value in data set [1] was “highly soluble”.
